Measured values: patent US20150147273A1, “RADIOLABELED ANALOG(S) OF COMPOUND 0118 AND USE THEREOF IN CONNECTION WITH PET AND/OR SPECT IMAGING TO DETERMINE WHETHER A PHARMACEUTICAL CONTAINING COMPOUND 0118 IS A CANDIDATE CANCER TREATMENT FOR A PATIENT” (KONINKLIJKE PHILIPS N.V., priority 2012, published 2015)

Tested on: MA148 human ovarian carcinoma cells
Assay: [3H]thymidine incorporation cell proliferation assay (FIG. 15)
Type: cell-based
Settings: compared with 0118
Excerpt: Evaluation of the anti-angiogenic activity of lower-rim substituted 0118 analogues (compound 4, compound 5) and equatorially substituted 0118 analogues (compound 13, compound 14, compound 18a, compound 18b, compound 18c).

SMILES	potency of inhibition of MA148 cell proliferation relative to parent compound 0118
C#CCCOc1c2cccc1Cc1cccc(c1OCC(=O)NCCN(C)C)Cc1cccc(c1OCC(=O)NCCN(C)C)Cc1cccc(c1OCC(=O)NCCN(C)C)C2 [compound 4, 25,26,27-Tris-N—(N,N-dimethyl-2-aminoethyl)carbamoylmethoxy-28-(3′-butynyloxy)calix[4]arene]	at least equipotent
CN(C)CCNC(=O)COc1c2cccc1Cc1cccc(c1OCC(=O)NCCN(C)C)Cc1cccc(c1OCC(=O)NCCN(C)C)Cc1cccc(c1OCCc1cn(CCF)nn1)C2 [compound 5, 25,26,27-Tris-N—(N,N-dimethyl-2-aminoethyl)carbamoylmethoxy-28-{2′-[1-(2-fluorethyl)-1H-[1,2,3]triazo-4-yl]ethyloxy}calix[4]arene]	more potent inhibitor of MA148 cell proliferation
C#CCC1c2cccc(c2OCC(=O)NCCN(C)C)Cc2cccc(c2OCC(=O)NCCN(C)C)Cc2cccc(c2OCC(=O)NCCN(C)C)Cc2cccc1c2OCC(=O)NCCN(C)C [compound 13, 25,26,27,28-Tetrakis-N—(N,N-dimethyl-2-aminoethyl)carbamoylmethoxy-2-(prop-2′-yn-1′-yl)calix[4]arene]	at least three times more potent than 0118
CN(C)CCNC(=O)COc1c2cccc1Cc1cccc(c1OCC(=O)NCCN(C)C)C(Cc1cn(CCF)nn1)c1cccc(c1OCC(=O)NCCN(C)C)Cc1cccc(c1OCC(=O)NCCN(C)C)C2 [compound 14, 25,26,27,28-Tetrakis-N—(N,N-dimethyl-2-aminoethyl)carbamoylmethoxy-2-{[1-(2-fluorethyl)-1H-[1,2,3]triazo-4-yl]methyl}calix[4]arene]	at least three times more potent than 0118
CCCC1c2cccc(c2OCC(=O)NCCN(C)C)Cc2cccc(c2OCC(=O)NCCN(C)C)Cc2cccc(c2OCC(=O)NCCN(C)C)Cc2cccc1c2OCC(=O)NCCN(C)C [compound 18b, 25,26,27,28-Tetrakis-N—(N,N-dimethyl-2-aminoethyl)carbamoylmethoxy-2-propylcalix[4]arene]	at least three times more potent than 0118

Tested on: endothelial cell proliferation
Assay: endothelial cell proliferation assays
Type: cell-based
Settings: not given
Excerpt: As an alternative to upper-rim substitution, [^18F]-labeled synthons may also be introduced at the lower rim or at an equatorial position of the calix[4]arene core of compound 0118. […] Based on this knowledge, close mimetics of compound 0118 have been produced, where one of the four lower rim substituents is replaced by a substituent containing an alkyne- or azide-functional group, providing access to [^18F]fluoroalkyltriazole-labeled compound 0118 analogues via Huisgen 1,3-dipolar cycloaddition reaction with the corresponding [^18F]fluoroalkynes and [^18F]fluoroazides, respectively.

SMILES	anti-angiogenic potency compared with compound 0118
CN(C)CCNC(=O)COc1c2cccc1Cc1cccc(c1OCC(=O)NCCN(C)C)Cc1cccc(c1OCC(=O)NCCN(C)C)Cc1cccc(c1OCCc1cn(CCF)nn1)C2 [compound 5, 25,26,27-Tris-N—(N,N-dimethyl-2-aminoethyl)carbamoylmethoxy-28-{2′-[1-(2-fluorethyl)-1H-[1,2,3]triazo-4-yl]ethyloxy}calix[4]arene]	comparable anti-angiogenic potency
